Assay [1] in a line: inhibitors of intracellular T. cruzi replication, confirmation, NIH3T3 host cells, beta-gal luminescence (AID 2044).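 Note: intracellular parasites grown in NIH/3T3 mouse fibroblasts as host cells; luminescent beta-galactosidase reporter signal from transgenic T. cruzi replicating inside host cells; inhibitors lower the luminescence signal.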 Type of assay: functional, cell-based.
Assay [2] in a line: cytotoxicity toward NIH3T3 fibroblasts, dose response, counter-screen, cell-based, ATP luminescence, mouse fibroblasts (AID 2010).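 Note: cells exposed to compound for about 90 hours before reading.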 The assay is classed as functional. For orientation: The purpose of a counterscreen is to sort out artefacts and off-target activity.
The next assay deals with Vero. The experiment in a line: cells. Type of assay: functional. Conditions: Chlorocebus sabaeus.
Assay [3] has as its target T1, DNA repair and recombination protein RAD54-like (Homo sapiens, UniProt Q92698).
T1 sequence (Q92698 whole entry): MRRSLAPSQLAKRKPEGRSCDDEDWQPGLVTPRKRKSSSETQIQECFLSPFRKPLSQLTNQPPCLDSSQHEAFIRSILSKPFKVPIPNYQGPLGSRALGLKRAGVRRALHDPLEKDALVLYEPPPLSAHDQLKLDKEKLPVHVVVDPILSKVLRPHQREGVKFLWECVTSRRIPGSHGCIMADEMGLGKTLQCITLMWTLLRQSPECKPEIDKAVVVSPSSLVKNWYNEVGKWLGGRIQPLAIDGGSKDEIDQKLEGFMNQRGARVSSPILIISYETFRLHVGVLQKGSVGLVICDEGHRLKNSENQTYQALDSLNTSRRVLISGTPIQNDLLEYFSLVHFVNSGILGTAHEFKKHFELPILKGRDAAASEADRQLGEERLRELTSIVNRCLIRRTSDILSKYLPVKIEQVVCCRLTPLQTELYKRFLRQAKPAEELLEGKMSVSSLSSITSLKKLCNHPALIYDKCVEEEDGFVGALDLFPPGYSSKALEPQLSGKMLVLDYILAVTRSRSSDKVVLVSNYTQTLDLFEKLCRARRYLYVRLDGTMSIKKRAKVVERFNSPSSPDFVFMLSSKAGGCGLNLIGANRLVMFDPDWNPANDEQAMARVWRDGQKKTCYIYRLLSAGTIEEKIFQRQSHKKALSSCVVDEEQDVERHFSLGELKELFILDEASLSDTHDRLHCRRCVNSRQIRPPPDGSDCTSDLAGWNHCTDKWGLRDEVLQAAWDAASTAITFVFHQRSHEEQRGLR
In words: inhibitors of human RAD54 branch migration, confirmation, biochemical, fluorescence, cherry-picked samples, dose series (AID 651657). Type of assay: functional.

Assay [4] addresses T2, DNA repair protein RAD52 homolog (Homo sapiens, UniProt P43351).
T2 sequence (P43351 whole entry): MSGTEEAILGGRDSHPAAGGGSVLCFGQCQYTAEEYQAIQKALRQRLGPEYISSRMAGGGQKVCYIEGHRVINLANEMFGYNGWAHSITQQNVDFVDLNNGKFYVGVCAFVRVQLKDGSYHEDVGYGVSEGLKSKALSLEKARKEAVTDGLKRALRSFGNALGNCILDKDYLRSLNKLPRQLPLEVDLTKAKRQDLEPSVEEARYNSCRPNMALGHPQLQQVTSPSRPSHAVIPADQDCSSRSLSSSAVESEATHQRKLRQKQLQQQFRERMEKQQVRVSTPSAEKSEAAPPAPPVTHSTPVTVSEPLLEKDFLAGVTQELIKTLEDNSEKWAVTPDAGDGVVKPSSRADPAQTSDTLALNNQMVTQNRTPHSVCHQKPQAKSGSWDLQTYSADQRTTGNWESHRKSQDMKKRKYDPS
The assay is classed as functional, biochemical.

Assay [5] can be described thus: P. falciparum 3D7-ScDHODH growth inhibitors, dose response, SYBR Green, dry powder samples (AID 1159570).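 Note: parasite growth measured after 72 hours of compound exposure.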 Type of assay: functional, cell-based.
The nature of assay [6]: P. falciparum Dd2 growth inhibitors, dose response, SYBR Green, cherry-picked samples (AID 1159567). The assay is classed as functional, cell-based.
A short description of assay [7]: P. falciparum Dd2 growth inhibitors, dose response, SYBR Green, dry powder samples (AID 1159566).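 Note: potency for growth inhibition with lower SYBR green DNA signal.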 The assay is classed as functional, cell-based.
Assay [8] in a line: P. falciparum ATP4 D1247Y mutant growth inhibitors, dose response, NITD609-resistant line, SYBR Green, dry powder (AID 1159571).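 Note: parasites synchronized at ring stage by sorbitol before testing.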 The assay is classed as functional, cell-based.
A short description of assay [9]: HepG2 cell cytotoxicity, dose response, cytotoxicity control, cherry-picked samples (AID 1159577). Type of assay: functional, cell-based.

Structures are written as SMILES. Calls of active or inactive are those of the source. Where only a bound is given, the exact number is not on record here.

For orientation: EC50 means the concentration needed to bring the measured effect to its halfway point. As a reminder, the CC50 is the concentration at which the toxic effect on the cells reaches its halfway point. A word on the AC50: it is the midpoint of the concentration-response curve, whichever way the signal moves. As to `CN(C)CCCN(C(=O)c1ccco1)c1nc(-c2ccc(Cl)cc2)cs1`, the values for the EC50 (in assay [1]; in assay [2]; in “cells”) were < 100 nM (active), > 60000 nM (not active) and 254 nM (active), respectively. Also, the CC50 in the assay with Vero was > 25000 nM (active). Also, the AC50 in assay [3] was 64100 nM (active); in assay [4] it was 17300 nM (active).
In the case of `C[C@H](CO)N1C[C@H](C)[C@@H](CN(C)C(=O)Nc2cccc3ccccc23)Oc2ccc(NC(=O)Nc3ccc(C(F)(F)F)cc3)cc2C1=O`, the AC50 is 1370 nM (active) in [5], 1810 nM (active) in [6], 1440 nM (active) in assay [7] and 1210 nM (active) in assay [8].
For `COc1ccc2c3c(n(C)c2c1)[C@@H](CO)N(C(=O)C1CCCC1)CC31CCN(C(=O)Nc2cccc(F)c2)CC1`, in that order: 94.7 nM (active), 672 nM (active), 418 nM (active) and 239 nM (active).
For the molecule `C[C@H](CO)N1C[C@H](C)[C@H](CN(C)C(=O)c2cc(Cl)cc(Cl)c2)OCc2ccccc2-c2c(n(C)c3ccccc23)C1=O`, the AC50 in assay [6] was 4110 nM (active); in assay [9] it was > 39000 nM (inactive).
Turning to `CC(C)CC#Cc1ccc([C@H]2[C@H](CO)N3CCCCN(S(=O)(=O)Cc4ccccc4)C[C@@H]23)cc1`, the AC50 was 4800 nM (active) in assay [6] and 9450 nM (active) in assay [9].
With `C[C@@H]1CN([C@H](C)CO)C(=O)c2ccccc2-c2ccccc2CO[C@@H]1CN(C)Cc1ccccc1C(F)(F)F`, the AC50 in assay [6] is 2790 nM (active); in assay [9] it was 15700 nM (active).

The values are drawn from ChEMBL document CHEMBL1201862, “PubChem BioAssay data set” (2004).
